The term melting point denotes the temperature, or range, at which the solid turns liquid. `CCN(C)C(=S)Nc1cc(C)c(Oc2cccc(C(C)(C)C)c2)cc1C` [Compound 27, N′-(4-{[3-(1,1-dimethylethyl)phenyl]oxy}-2,5-dimethylphenyl)-N-ethyl-N-methylthiourea] had a melting point of 125 °C.

The record behind these values is patent publication US6696487B2, “Fungicidal phenyl(thio)urea and phenyl(thio)carbamate derivatives” (Bayer Cropscience S.A., priority 2000, dated 2004).
